Laboratory results: EP0972447B1, “Parasitic and saprophagous mite control on beneficial insects” (BASF AKTIENGESELLSCHAFT, priority 1998, dated 2000)

How the values were obtained:
[1] = system: honeybees (Apis mellifera); test: Mortality of the topically treated host honeybees (Example 1); type: in vivo; conditions: 5 days at 31°C
Method: (§1) In this evaluation, honeybees (Apis mellifera) taken from hives which are 70% infested with Varroa jacobsoni (Varroa mites) are chilled to immobilize the bees. A 1µl droplet of an acetone solution of test compound is applied to the dorsal abdomen of each bee. Control bees receive a 1µl droplet of acetone. A total of 50-52 bees are treated for each dose rate tested. Treatment dose rates are based upon the LD50 (dose rate required to obtain 50% mortality of healthy uninfected bees) of each test compound and are set at 10% of the LD50 and subsequent 10-fold dilutions thereof. The treated bees are placed in an incubator at 31°C in the dark and fed 50% sugar water ad libitum for 5 days. After incubation, the bees are examined for mortality and mite infestation.

[2] = system: Varroa jacobsoni (Varroa mites); test: Efficacy against Varroa jacobsoni on topically treated honeybees (Example 1, hives 70% infested): parasite mortality; type: in vivo; conditions: 120 h, 5 days at 31°C, read-out: % Mortality Parasites
Method: as §1

[3] = system: Varroa jacobsoni; test: Efficacy against Varroa jacobsoni on topically treated honeybees (Example 2, bees 90% infected): mite mortality; type: in vivo; conditions: 120 h, read-out: % Mortality Mites
Method: as §1
(§2) Using essentially the same procedure described in Example 1, but employing honeybees which are 90% infected with Varroa jacobsoni, the following results are obtained and shown in Table II below.

[4] = system: honeybees; test: Mortality of the topically treated host honeybees (Example 2); type: in vivo, Apis mellifera; conditions: bees 90% infected
Method: as §1, §2

[5] = 0.002 µg/bee topical in acetone

**Q.** With CN(c1ccc(F)c(C(F)(F)F)c1)c1cc(Oc2ccc(F)c(C(F)(F)F)c2)ncn1 [A] as the compound, how does the “% Mortality Bees” value ([1]; 0.08 µg/bee topical in acetone) read?
**A.** 21%

**Q.** And the “% Mortality Bees” value ([1]; 0.8 µg/bee topical in acetone)?
**A.** 13%

**Q.** And the “% Mortality Bees” value ([1]; 8:0 µg/bee topical in acetone)?
**A.** 21%

**Q.** What about the mortality at 0.08 µg/bee ([2]; 0.08 µg/bee topical in acetone) of the same compound?
**A.** 75%

**Q.** What about the mortality at 0.8 µg/bee ([2]; 0.8 µg/bee topical in acetone) of the same compound?
**A.** 100%

**Q.** What about the mortality at 8 µg/bee ([2]; 8:0 µg/bee topical in acetone) of the same compound?
**A.** 92%

**Q.** With Fc1ccc(Oc2cc(Oc3ccc(F)c(C(F)(F)F)c3)ncn2)cc1C(F)(F)F [B] as the compound, how does the “% Mortality Bees” value [1, 5] read?
**A.** 16%

**Q.** What about the “% Mortality Bees” value ([1]; 0.02 µg/bee topical in acetone) of the same compound?
**A.** 14%

**Q.** And the “% Mortality Bees” value ([1]; 0.2 µg/bee topical in acetone)?
**A.** 10%

**Q.** What about the mortality at 0.002 µg/bee [2, 5] of the same compound?
**A.** 6%

**Q.** And the mortality at 0.02 µg/bee ([2]; 0.02 µg/bee topical in acetone)?
**A.** 36%

**Q.** And the mortality at 0.2 µg/bee ([2]; 0.2 µg/bee topical in acetone)?
**A.** 88%

**Q.** Which mortality at 0.01 µg/bee ([3]; 0.01 µg/bee topical) does the source give for CN(c1ccc(F)c(C(F)(F)F)c1)c1cc(Oc2ccc(F)c(C(F)(F)F)c2)ncn1 [C] here?
**A.** 8%

**Q.** What about the mortality at 0.1 µg/bee ([3]; 0.10 µg/bee topical) of the same compound?
**A.** 80%

**Q.** And the mortality at 1 µg/bee ([3]; 1.00 µg/bee topical)?
**A.** 91%

**Q.** And the “% Mortality Bees” value ([4]; 0.01 µg/bee topical)?
**A.** 13%

**Q.** What about the “% Mortality Bees” value ([4]; 0.10 µg/bee topical) of the same compound?
**A.** 12%

**Q.** And the “% Mortality Bees” value ([4]; 1.00 µg/bee topical)?
**A.** 16%
